For one compound, IC50 results are on record in BindingDB's records for doi:10.1021/acs.biochem.6b00786 (University of California Irvine, 2016).

Test [1] deals with Nitric oxide synthase oxygenase [E25A,E26A,E316A] (Bacillus subtilis, UniProt O34453, E25A/E26A/E316A). The test is described as follows: bBiDomain assay. The procedure:
(§1) Reactions were carried out using the buffered solution reported for the three-component reaction. The bBiDomain reactions included 100 nm bBiDomain and either YumC or FLDR at 1 μm; except for reactions in which YumC concentrations were varied. For inhibition assays, inhibitors were added at 30 μm. Similar to the three-component reaction, bBiDomain reactions were initiated with NADPH at a final concentration of 400 μm, quenched by thermal denaturation, and analyzed by Griess reaction.

For test [2], the target named is Nitric oxide synthase oxygenase [E25A,E26A,I218V,E316A] (Bacillus subtilis, UniProt O34453, E25A/E26A/E316A/I218V). The test is described as follows: bBiDomain assay. The procedure: as §1

Consider `Cc1cc(N)nc2ccccc12`, for which the IC50 in test [1] came to 36.6 µM; in test [2], 53.3 µM.
